Measured values from ChEMBL document CHEMBL3085714 (J Med Chem, 2013).

What was measured:
Homo sapiens [1] = organism: Homo sapiens; experiment: Selectivity for p38alpha MAP kinase (unknown origin) over WNK2 (unknown origin)
Homo sapiens [2] = organism: Homo sapiens; experiment: Selectivity for p38alpha MAP kinase (unknown origin) over TTK (unknown origin)
Homo sapiens [3] = organism: Homo sapiens; experiment: Selectivity for p38alpha MAP kinase (unknown origin) over TEC (unknown origin)
Homo sapiens [4] = organism: Homo sapiens; experiment: Selectivity for p38alpha MAP kinase (unknown origin) over STK25 (unknown origin)
Homo sapiens [5] = organism: Homo sapiens; experiment: Selectivity for p38alpha MAP kinase (unknown origin) over SRPK1 (unknown origin)
Homo sapiens [6] = organism: Homo sapiens; experiment: Selectivity for p38alpha MAP kinase (unknown origin) over SRMS (unknown origin)
Homo sapiens [7] = organism: Homo sapiens; experiment: Selectivity for p38alpha MAP kinase (unknown origin) over RPS6KA5 (unknown origin)
Homo sapiens [8] = organism: Homo sapiens; experiment: Selectivity for p38alpha MAP kinase (unknown origin) over RPS6KA1 (unknown origin)
Homo sapiens [9] = organism: Homo sapiens; experiment: Selectivity for p38alpha MAP kinase (unknown origin) over RON (unknown origin)
Homo sapiens [10] = organism: Homo sapiens; experiment: Selectivity for p38alpha MAP kinase (unknown origin) over AXL (unknown origin)
Homo sapiens [11] = organism: Homo sapiens; experiment: Selectivity for p38alpha MAP kinase (unknown origin) over ASK1 (unknown origin)
Homo sapiens [12] = organism: Homo sapiens; experiment: Selectivity for p38alpha MAP kinase (unknown origin) over wild-type ABL1 (unknown origin)
Homo sapiens [13] = organism: Homo sapiens; experiment: Selectivity for p38alpha MAP kinase (unknown origin) over ABL1 E255K mutant (unknown origin)
Homo sapiens [14] = organism: Homo sapiens; experiment: Selectivity for p38alpha MAP kinase (unknown origin) over ABL1 Q252H mutant (unknown origin)
Homo sapiens [15] = organism: Homo sapiens; experiment: Selectivity for p38alpha MAP kinase (unknown origin) over ROCK1 (unknown origin)
Homo sapiens [16] = organism: Homo sapiens; experiment: Selectivity for p38alpha MAP kinase (unknown origin) over RIPK2 (unknown origin)
Homo sapiens [17] = organism: Homo sapiens; experiment: Selectivity for p38alpha MAP kinase (unknown origin) over RET V804L mutant (unknown origin)
Homo sapiens [18] = organism: Homo sapiens; experiment: Selectivity for p38alpha MAP kinase (unknown origin) over RAF1 Y340D/Y341D double mutant (unknown origin)
Homo sapiens [19] = organism: Homo sapiens; experiment: Selectivity for p38alpha MAP kinase (unknown origin) over PYK2 (unknown origin)
Homo sapiens [20] = organism: Homo sapiens; experiment: Selectivity for p38alpha MAP kinase (unknown origin) over PKC-nu (unknown origin)
Homo sapiens [21] = organism: Homo sapiens; experiment: Selectivity for p38alpha MAP kinase (unknown origin) over PIM1 (unknown origin)
Homo sapiens [22] = organism: Homo sapiens; experiment: Selectivity for p38alpha MAP kinase (unknown origin) over PDGFR-alpha V561D mutant (unknown origin)
Homo sapiens [23] = organism: Homo sapiens; experiment: Selectivity for p38alpha MAP kinase (unknown origin) over PASK (unknown origin)
Homo sapiens [24] = organism: Homo sapiens; experiment: Selectivity for p38alpha MAP kinase (unknown origin) over NEK4 (unknown origin)
Homo sapiens [25] = organism: Homo sapiens; experiment: Selectivity for p38alpha MAP kinase (unknown origin) over NEK2 (unknown origin)
Homo sapiens [26] = organism: Homo sapiens; experiment: Selectivity for p38alpha MAP kinase (unknown origin) over mTOR (unknown origin)
Homo sapiens [27] = organism: Homo sapiens; experiment: Selectivity for p38alpha MAP kinase (unknown origin) over MST2 (unknown origin)
[28] = target: Mitogen-activated protein kinase 14 (Homo sapiens, UniProt Q16539); experiment: Competitive inhibition of p38alpha MAP kinase (unknown origin) in presence of 300 uM ATP
[29] = target: STE20-like serine/threonine-protein kinase (Homo sapiens) (UniProt Q9H2G2); experiment: Inhibition of SLK (unknown origin) at 10 uM
Homo sapiens [30] = organism: Homo sapiens; experiment: Selectivity for p38alpha MAP kinase (unknown origin) over MINK1 (unknown origin)
Homo sapiens [31] = organism: Homo sapiens; experiment: Selectivity for p38alpha MAP kinase (unknown origin) over MET Y1230H mutant (unknown origin)
Homo sapiens [32] = organism: Homo sapiens; experiment: Selectivity for p38alpha MAP kinase (unknown origin) over wild type MET (unknown origin)
Homo sapiens [33] = organism: Homo sapiens; experiment: Selectivity for p38alpha MAP kinase (unknown origin) over MERTK (unknown origin)
Homo sapiens [34] = organism: Homo sapiens; experiment: Selectivity for p38alpha MAP kinase (unknown origin) over MAP3K7/MAP3K7IP1 (unknown origin)
Homo sapiens [35] = organism: Homo sapiens; experiment: Selectivity for p38alpha MAP kinase (unknown origin) over IRAK4 (unknown origin)
Homo sapiens [36] = organism: Homo sapiens; experiment: Selectivity for p38alpha MAP kinase (unknown origin) over IRAK1 (unknown origin)
Homo sapiens [37] = organism: Homo sapiens; experiment: Selectivity for p38alpha MAP kinase (unknown origin) over INS-R (unknown origin)
Homo sapiens [38] = organism: Homo sapiens; experiment: Selectivity for p38alpha MAP kinase (unknown origin) over GRK7 (unknown origin)
Homo sapiens [39] = organism: Homo sapiens; experiment: Selectivity for p38alpha MAP kinase (unknown origin) over wild type FLT3 (unknown origin)
Homo sapiens [40] = organism: Homo sapiens; experiment: Selectivity for p38alpha MAP kinase (unknown origin) over FLT3 ITD (unknown origin)
Homo sapiens [41] = organism: Homo sapiens; experiment: Selectivity for p38alpha MAP kinase (unknown origin) over FLT3 D835Y mutant (unknown origin)
Homo sapiens [42] = organism: Homo sapiens; experiment: Selectivity for p38alpha MAP kinase (unknown origin) over EPHB4 (unknown origin)
Homo sapiens [43] = organism: Homo sapiens; experiment: Selectivity for p38alpha MAP kinase (unknown origin) over EPHA3 (unknown origin)
Homo sapiens [44] = organism: Homo sapiens; experiment: Selectivity for p38alpha MAP kinase (unknown origin) over DAPK2 (unknown origin)
Homo sapiens [45] = organism: Homo sapiens; experiment: Selectivity for p38alpha MAP kinase (unknown origin) over CK1-alpha1 (unknown origin)
Homo sapiens [46] = organism: Homo sapiens; experiment: Selectivity for p38alpha MAP kinase (unknown origin) over CHK1 (unknown origin)

Chain of Mitogen-activated protein kinase 14 (Q16539 whole entry): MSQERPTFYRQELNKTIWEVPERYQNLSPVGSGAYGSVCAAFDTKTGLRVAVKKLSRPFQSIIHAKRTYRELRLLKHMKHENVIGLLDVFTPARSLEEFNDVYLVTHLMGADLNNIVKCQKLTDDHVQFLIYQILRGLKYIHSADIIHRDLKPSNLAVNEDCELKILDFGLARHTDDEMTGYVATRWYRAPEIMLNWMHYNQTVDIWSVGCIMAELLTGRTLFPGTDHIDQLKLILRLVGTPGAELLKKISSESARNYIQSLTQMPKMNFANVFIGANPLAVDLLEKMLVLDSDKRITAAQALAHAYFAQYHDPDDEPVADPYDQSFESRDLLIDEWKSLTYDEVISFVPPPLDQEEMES
Chain of STE20-like serine/threonine-protein kinase (Homo sapiens) (Q9H2G2 whole entry, looked up): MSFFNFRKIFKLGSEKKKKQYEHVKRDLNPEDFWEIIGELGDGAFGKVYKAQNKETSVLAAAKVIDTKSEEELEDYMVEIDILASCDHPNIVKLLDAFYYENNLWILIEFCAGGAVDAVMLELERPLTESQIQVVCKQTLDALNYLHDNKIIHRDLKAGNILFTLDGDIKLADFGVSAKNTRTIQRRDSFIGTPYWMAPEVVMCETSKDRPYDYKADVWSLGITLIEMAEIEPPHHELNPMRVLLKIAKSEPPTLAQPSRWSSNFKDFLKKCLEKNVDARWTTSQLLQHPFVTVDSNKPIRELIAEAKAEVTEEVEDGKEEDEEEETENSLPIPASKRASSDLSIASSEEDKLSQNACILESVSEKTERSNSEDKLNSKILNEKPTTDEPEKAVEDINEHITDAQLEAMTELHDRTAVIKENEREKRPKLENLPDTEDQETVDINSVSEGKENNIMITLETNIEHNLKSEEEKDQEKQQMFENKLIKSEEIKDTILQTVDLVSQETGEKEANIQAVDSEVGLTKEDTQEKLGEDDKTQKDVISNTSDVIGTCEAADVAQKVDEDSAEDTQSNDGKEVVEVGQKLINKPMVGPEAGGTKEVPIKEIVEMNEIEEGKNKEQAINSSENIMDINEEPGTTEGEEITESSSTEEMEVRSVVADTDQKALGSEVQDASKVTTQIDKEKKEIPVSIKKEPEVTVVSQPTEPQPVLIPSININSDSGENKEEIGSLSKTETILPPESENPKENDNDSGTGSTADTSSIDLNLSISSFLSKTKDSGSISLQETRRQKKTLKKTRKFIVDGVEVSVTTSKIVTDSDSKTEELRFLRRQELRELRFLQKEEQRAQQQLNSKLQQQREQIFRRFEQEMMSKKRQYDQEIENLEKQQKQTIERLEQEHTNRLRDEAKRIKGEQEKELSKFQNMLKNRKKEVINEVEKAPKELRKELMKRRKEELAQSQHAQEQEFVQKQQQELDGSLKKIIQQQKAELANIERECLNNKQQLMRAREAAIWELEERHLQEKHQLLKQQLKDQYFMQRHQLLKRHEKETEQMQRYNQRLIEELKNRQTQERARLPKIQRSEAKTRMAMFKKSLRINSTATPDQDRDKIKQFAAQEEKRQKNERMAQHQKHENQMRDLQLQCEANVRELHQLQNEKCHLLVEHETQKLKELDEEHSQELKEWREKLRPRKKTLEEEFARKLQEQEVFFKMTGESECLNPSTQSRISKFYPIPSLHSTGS

Cc1cc(F)c(NC(=O)c2ccsc2)cc1Nc1ccc2c(c1)OCc1ccc(OC[C@H](O)CO)cc1C2=O
Selectivity ratio (Homo sapiens [1]): > 1000
Selectivity ratio (Homo sapiens [2]): > 1000
Selectivity ratio (Homo sapiens [3]): > 1000
Selectivity ratio (Homo sapiens [4]): > 1000
Selectivity ratio (Homo sapiens [5]): > 1000
Selectivity ratio (Homo sapiens [6]): > 1000
Selectivity ratio (Homo sapiens [7]): > 1000
Selectivity ratio (Homo sapiens [8]): > 1000
Selectivity ratio (Homo sapiens [9]): > 1000
Selectivity ratio (Homo sapiens [10]): > 1000
Selectivity ratio (Homo sapiens [11]): > 1000
Selectivity ratio (Homo sapiens [12]): > 1000
Selectivity ratio (Homo sapiens [13]): > 1000
Selectivity ratio (Homo sapiens [14]): > 1000
Selectivity ratio (Homo sapiens [15]): > 1000
Selectivity ratio (Homo sapiens [16]): > 1000
Selectivity ratio (Homo sapiens [17]): > 1000
Selectivity ratio (Homo sapiens [18]): > 1000
Selectivity ratio (Homo sapiens [19]): > 1000
Selectivity ratio (Homo sapiens [20]): > 1000
Selectivity ratio (Homo sapiens [21]): > 1000
Selectivity ratio (Homo sapiens [22]): > 1000
Selectivity ratio (Homo sapiens [23]): > 1000
Selectivity ratio (Homo sapiens [24]): > 1000
Selectivity ratio (Homo sapiens [25]): > 1000
Selectivity ratio (Homo sapiens [26]): > 1000
Selectivity ratio (Homo sapiens [27]): > 1000
IC50 [28]: 4 nM
inhibition [29]: > 50%
Selectivity ratio (Homo sapiens [30]): > 1000
Selectivity ratio (Homo sapiens [31]): > 1000
Selectivity ratio (Homo sapiens [32]): > 1000
Selectivity ratio (Homo sapiens [33]): > 1000
Selectivity ratio (Homo sapiens [34]): > 1000
Selectivity ratio (Homo sapiens [35]): > 1000
Selectivity ratio (Homo sapiens [36]): > 1000
Selectivity ratio (Homo sapiens [37]): > 1000
Selectivity ratio (Homo sapiens [38]): > 1000
Selectivity ratio (Homo sapiens [39]): > 1000
Selectivity ratio (Homo sapiens [40]): > 1000
Selectivity ratio (Homo sapiens [41]): > 1000
Selectivity ratio (Homo sapiens [42]): > 1000
Selectivity ratio (Homo sapiens [43]): > 1000
Selectivity ratio (Homo sapiens [44]): > 1000
Selectivity ratio (Homo sapiens [45]): > 1000
Selectivity ratio (Homo sapiens [46]): > 1000
